Source: patent publication US7262151B2, “Methods and compositions for production of lipo-chito oligosaccharides by rhizobacteria” (McGill University, priority 2001, dated 2007)

Experiments:
[1] = tested on: Bradyrhizobium japonicum USDA 3; test: LCO production by wild type USDA3 (XAD resin extraction, HPLC); type: cell-based; settings: for production of LCOs, in words: at optimum concentrations
Method: Bradyrhizobium japonicum (strain USDA 3) was grown at 28° C. in yeast extract mannitol medium (YEM) (mannitol 10 g, K2HPO4 0.5 g, MgSO4.7H2O 0.2 g, NaCl 0.1 g, yeast extract 0.4 g, and distilled water 1000 ml), pH 6.8, shaken at 150 rpm until the OD620 reached 0.4-0.6 (4-6 d) in the dark. Thereafter, 2.0 l of bacterial subculture was started by inoculating with material from the first culture (5 ml of the first culture per 250 ml of YEM media), until the OD620 reached to 0.2-0.4. At this stage, methyl jasmonate, jasmonic acid and genistein were added to culture so that the final concentraton for methyl jasmonate and jasmonic acid was 5, 10, 25, 50 and 100 μM and 5 μM for genistein. The culture was incubated for 48-96 h and the LCO extracted according to the following procedure.
The LCO from the induced bacterial culture was isolated with XAD resins. Before using XAD resins for extraction, they were first conditioned. Each 40 grams of XAD resins were first washed two times with 20 mL acetone after conditioning for 15 minutes. This was followed by two washes of 20 mL methanol when the resins were conditioned for 15 minutes. Finally, the XAD resins were conditioned (5 min) and washed with 20 mL dd. water two times. The conditioned resins were placed in the refrigerator at 4° C. until use.
For each one liter of bacterial culture, 40 grams of resin was added to the flask and these were shaken together overnight at 150 rpm. The culture along with the resin was poured through a funnel into a flask fitted with a course brass mesh (fine enough to allow the culture go quickly through and filter out the resin without any loss). At this stage, the resins are washed with water. In order to extract LCO from the resin, the XAD resin was passed through a vacuum filtration system. The fritted glass base of the system was fitted with Whatman #1 paper disk with the objective to keep the solvent with the bead until vacuum is applied. The resin beads were washed two times with 40 mL methanol after conditioning for 5 minutes. […]

B. japonicum USDA 110 = test: LCO production by B. japonicum USDA 110 (butanol extraction, HPLC); type: cell-based, Bradyrhizobium japonicum
Method: Cultures of B. japonicum (strain USDA 110) were grown at 28° C. in 600 ml of sterile yeast mannitol medium (YEM) at pH 6.8. The culture was shaken at 150 rpm until an OD620 of 0.4 to 0.6 was achieved (4 to 6 days). When the culture reached this stage, it was divided equally into four flasks (150 mL) and specific concentrations of JA and genistein were added to the cultures.
One hundred and fifty mL of each culture were extracted with 40 mL of the HPLC-grade butanol (Fisher Science Ltd., 112 Colonnade Road, Nepean, ON, Canada) by shaking together for 5 minutes. The two phases were then allowed to separate by leaving the mixture to stand overnight. The upper layer (butanol) was collected with a glass pipette and 25 mL were placed in a 250 ml evaporation flask. LCO extract solutions were stored at 4° C. until evaporation. This step was conducted at 80° C. with a Yamato RE 500 Rotary Evaporator (Yamato Scientific American Inc., Orangeburge, N.Y., USA). The butanol phase was evaporated down to 2 to 3 mL. The resulting light brown material was dissolved in 4 ml of 18% acetonitrile and stored in the dark at 4° C. in a glass tube sealed with parafilm.
For HPLC analysis we used a Vydac C18 reversed—phase column (VYDAC, Hesperia, Calif., USA) with a flow rate of 1.0 mL/min and a Vydac guard column (VYDAC, Hesperia, Calif., USA). We used at least 10 min. of isocratic run with 18% acetonitrile (AcN/H2O; w/w) to establish a baseline. The baseline value was always about 0.010. When a sample was loaded we conducted an isocratic elution with 18% AcN for 45 min. This step removed all non-polar light fractions. We then applied a gradient elution (18 to 82% AcN) for 70 min. LCOs begin to appear at 84 to 86 min of HPLC run time. We used B. japonicum Nod factor (BjV (C18:1, MeFuc)) obtained from G. Stacey (University of Tennessee, Knoxville, Tenn.) as a standard. The identity of the LCO was confirmed by the Complex Carbohydrate Research Center at the University of Georgia with FAB-MS and MALDI-TOF spectrometry analysis.
There were two experiments conducted. In the first the treatments consisted of factorial combinations of two concentrations (0 and 20 μM) of two signal materials (JA and genistein (zhang and Smith, 1995)). The experiment was organized following a randomized complete block design with three blocks. In experiment 1, two temperatures were used (17 and 25° C.). […]
Each of the above experiments was conducted two times and the experimental results were pooled and analyzed statistically by analysis of variance using the Statistical Analysis System computer package (SAS Institute Inc. 1980). […] Since the effects of temperature on growth were very large, the data from two temperatures used in the first experiment were analyzed separately.

[2] = tested on: Rhizobium leguminasorum strain RBL 1284; settings: Rosas et al (1998); cited from earlier work

Row | SMILES | production of LCOs, in words [1] | effect on LCO production, in words (B. japonicum USDA 110; 25° C., genistein present) | effect on LCO production, in words (B. japonicum USDA 110; JA alone, without genistein, either temperature) | effect on LCO production, in words (B. japonicum USDA 110; low temperature (17° C.), genistein present) | expression of nod genes, in words [2] | LCO production compared with optimum genistein concentration (5 μM) ([1]; 100 μM) | peak-time for LCO production (B. japonicum USDA 110; after genistein was added to the cell culture)
1 | CC/C=C\C[C@H]1C(=O)CC[C@@H]1CC(=O)O [JA, [1R-[1α,2β(Z)]]-3-oxo-2-(pentenyl)cyclopentaneacetic acid] | induced the production of LCOs | not at 25 °C | can not promote LCO production | can improve LCO production | induced expression of nod genes |  | 
2 | CC/C=C\CC1C(=O)CCC1CC(=O)OC (stereo not drawn) [MeJA, methyl jasmonate] | induced the production of LCOs |  |  |  | induced expression of nod genes | substantially more LCO | 
3 | O=c1c(-c2ccc(O)cc2)coc2cc(O)cc(O)c12 [GEN, 5,7,4′-trihydroxyisoflavone] |  |  |  |  |  |  | 8 to 10 h
